{"source": "paper PMC7503713", "about": "“GANT61 Reduces Hedgehog Molecule (GLI1) Expression and Promotes Apoptosis in Metastatic Oral Squamous Cell Carcinoma Cells” (International Journal of Molecular Sciences, 2020)", "format_in_all_cases": "cell-based, human", "key": {"HSC3 cells": {"tested_on": "HSC3 cells", "assay": "Trypan blue exclusion cell viability assay", "description": "To study the effects of GANT61 on HSC3 cell viability, cycle, and death patterns, 4 mL of cellular solution (containing 0.7 × 10^5 cells/mL) was placed on 6-well plates and incubated overnight, to allow adhesion. […] For cell cycle analysis, the effects of GANT61 on HSC3 cells were also evaluated after 12 h of treatment. Negative controls were treated with the vehicle (0.2% DMSO) used to dilute the GLI inhibitor, and 5-fluorouracil (5-FU, 17 μM) was used as a positive control. All experiments were carried out in duplicate and repeated no less than three times. Cell viability was determined by the trypan blue exclusion method, in which 90 μL aliquots were collected at several incubation periods, stained with 10 μL trypan blue, and counted in a Neubauer chamber, under optical microscopy, at 20× magnification (Olympus CX41 Olympus, Tokyo, Japan)."}, "CAF 1": {"tested_on": "CAF 1", "assay": "alamarBlue cytotoxicity assay, cancer-associated fibroblasts CAF 1", "details": "CAF 1, alamarBlue, 72 h of incubation", "description": "Two cancer-associated fibroblast populations (CAF1 and CAF2) were obtained as described by Sobral et al. (2011), from fragments of squamous cell carcinoma of the tongue that were removed from patients seen at the UNICAMP School of Dentistry in Piracicaba, São Paulo, Brazil.\nSpecimens were washed with PBS, fragmented, and placed in 25 cm^2 cell culture flasks containing 1 mL of DMEM medium supplemented with 10% FBS and an antibiotic, and then maintained in an incubator, at 37 °C, under 5% CO2. Cell growth was monitored daily, and the medium was replaced every 2–3 days. […] Type I collagen production as assessed by ELISA was also used as a marker of myofibroblast activity. Both CAF1 and CAF2 primary populations were maintained for a maximum of 12 passages, with CAF phenotype maintenance evaluated through immunocytochemical staining for the α-SMA antibody after each two passages. […]\nTo assess the cytotoxicity of the GLI inhibitor GANT61 (Sigma-Aldrich, St. Louis, MO, USA) in tumor and non-tumor cell lines, an alamarBlue assay (Sigma-Aldrich Chemical Co, St. Louis, MO, USA) was performed after 72 h of exposure to the inhibitor, as described by Ahmed et al., 1994 [46]. […] Absorbance was measured at 570 nm (reduced) and 595 nm (oxidized) wavelengths, using a Spectramax 190 plate reader (Molecular Devices; Sunnyvale, CA, USA). […]"}, "GLI1 mRNA": {"tested_on": "GLI1 mRNA", "assay": "qPCR of HH pathway gene expression in HSC3 cells, GLI1", "details": "12 h", "description": "For total RNA isolation, HSC3 cells were plated on 6-well plates, at a density of 0.7 × 10^5 cells/mL (5 mL/well volume), and incubated overnight, followed by treatment with the GLI inhibitor for 12 h at both concentrations (18 and 36 µM).\nAll experiments were carried out under DNAse/RNAse-free conditions. Silica microcolumns were used for RNA extraction, using an RNeasy Plus Mini Kit (QIAGEN, Hilden, Germany). Extracted RNA was analyzed for quantity and purity, using a NanoDrop®® 1000 spectrophotometer (Thermo Fisher Scientific, Waltham, MA, USA).\nReverse transcription was performed by using Superscript VILO™ transcriptase enzyme (Invitrogen, Carlsbad, CA, USA). The cDNA samples were stored at −20 °C, until the time of use.\nHH pathway component expression was evaluated in cells treated or not with GANT61 by qPCR, using TaqMan Gene Expression Assays^TM inventoried for the PTCH1 (Hs00181117_m1), GLI1 (Hs01110766_m1), GLI2 (Hs01119974_m1), and GLI3 (Hs00609233_m1) genes, as well as for B2 M (Hs99999907_m1). […]\nFollowing amplification and dissociation runs, quantification cycle (Cq) values were obtained by using the ViiA7^TM System Operational Program (AppliedByosistems, Foster City, CA, USA). For relative quantification, the comparative method (2−∆∆Cq) described by Livak and Schmittgen, 2001 was used. […]"}, "APC03": {"tested_on": "APC03", "assay": "alamarBlue cytotoxicity assay, APC03", "details": "72 h of incubation", "description": "(§1) To assess the cytotoxicity of the GLI inhibitor GANT61 (Sigma-Aldrich, St. Louis, MO, USA) in tumor and non-tumor cell lines, an alamarBlue assay (Sigma-Aldrich Chemical Co, St. Louis, MO, USA) was performed after 72 h of exposure to the inhibitor, as described by Ahmed et al., 1994 [46]. Cells were distributed on 96-well plates at a density of 7 × 10^4 cells/mL for adhered cells, and 3 × 10^5 cells/mL for cells in suspension. All tested compounds were dissolved in DMSO, added to wells containing 100 µL of cells in complete medium, and then incubated for 72 h. Eight concentrations of GANT61 (0.19 to 50 µg/mL), Doxorubicin (Laboratory IMA S.A.I.C., Buenos Aires, Argentina), and 5-Fluorouracil (5-FU, Sigma-Aldrich, St. Louis, MO, USA), both used as positive controls at concentrations ranging from 0.03 to 5 µg/mL, were added to respective wells. […] Absorbance was measured at 570 nm (reduced) and 595 nm (oxidized) wavelengths, using a Spectramax 190 plate reader (Molecular Devices; Sunnyvale, CA, USA).\n(§2) Statistical analyses were performed, using GraphPad Prism v. […] Data were analyzed according to distribution along the normal Gaussian curve. […] Differences between groups resulting from in vitro assays were evaluated by ANOVA (analysis of variance) testing, followed by the Student–Newman–Keuls test. […]"}, "SCC25": {"tested_on": "SCC25", "assay": "alamarBlue cytotoxicity assay, SCC25", "details": "72 h of incubation", "description": "as §1, §2"}, "SCC15": {"tested_on": "SCC15", "assay": "alamarBlue cytotoxicity assay, SCC15", "details": "72 h of incubation", "description": "as §1, §2"}, "HL60": {"tested_on": "HL60", "assay": "alamarBlue cytotoxicity assay, HL60", "details": "72 h of incubation", "description": "as §1, §2"}}}
{"compound": "O=c1[nH]cc(F)c(=O)[nH]1", "note": "[5-FU, 5-fluorouracil]", "values": [{"measurement": "number of viable cells", "setting": "HSC3 cells; 17 µM, all incubation times", "value": "reduced the number of viable cells"}, {"measurement": "IC50", "setting": "CAF 1; Homo sapiens, Fibroblast", "value": "> 192", "unit": "µM"}]}
{"compound": "CN(C)c1ccccc1CN1CCCN(Cc2ccccc2N(C)C)C1c1ccncc1", "note": "[GANT61]", "values": [{"measurement": "mRNA expression of GLI1", "setting": "GLI1 mRNA; HSC3, 18 µM, not significant", "value": "Reductions in mRNA expression"}, {"measurement": "mRNA levels of GLI1", "setting": "GLI1 mRNA; HSC3, 36 µM, vs negative (DMSO 0.2%) and positive (5-FU) controls", "value": "statistically significant reduction"}, {"measurement": "viability of HSC3 cells", "setting": "HSC3 cells; 18 and 36 µM, 24, 48 and 72 h, vs 0.2% DMSO", "value": "significantly reduce the viability"}, {"measurement": "IC50", "setting": "APC03", "value": "> 116", "unit": "µM"}, {"measurement": "IC50", "setting": "SCC25", "value": 53.3, "unit": "µM"}, {"measurement": "IC50", "setting": "SCC15", "value": 72.7, "unit": "µM"}, {"measurement": "IC50", "setting": "HL60", "value": "> 116", "unit": "µM"}, {"measurement": "IC50", "setting": "CAF 1", "value": 3.67, "unit": "µM"}]}
